Common to all, as to format: biochemical
For one assay, the target named is T1, recombinant human VAP-1 (Homo sapiens, UniProt Q16853).
T1 construct: purchased R&D systems
T1 sequence (Q16853 1-763): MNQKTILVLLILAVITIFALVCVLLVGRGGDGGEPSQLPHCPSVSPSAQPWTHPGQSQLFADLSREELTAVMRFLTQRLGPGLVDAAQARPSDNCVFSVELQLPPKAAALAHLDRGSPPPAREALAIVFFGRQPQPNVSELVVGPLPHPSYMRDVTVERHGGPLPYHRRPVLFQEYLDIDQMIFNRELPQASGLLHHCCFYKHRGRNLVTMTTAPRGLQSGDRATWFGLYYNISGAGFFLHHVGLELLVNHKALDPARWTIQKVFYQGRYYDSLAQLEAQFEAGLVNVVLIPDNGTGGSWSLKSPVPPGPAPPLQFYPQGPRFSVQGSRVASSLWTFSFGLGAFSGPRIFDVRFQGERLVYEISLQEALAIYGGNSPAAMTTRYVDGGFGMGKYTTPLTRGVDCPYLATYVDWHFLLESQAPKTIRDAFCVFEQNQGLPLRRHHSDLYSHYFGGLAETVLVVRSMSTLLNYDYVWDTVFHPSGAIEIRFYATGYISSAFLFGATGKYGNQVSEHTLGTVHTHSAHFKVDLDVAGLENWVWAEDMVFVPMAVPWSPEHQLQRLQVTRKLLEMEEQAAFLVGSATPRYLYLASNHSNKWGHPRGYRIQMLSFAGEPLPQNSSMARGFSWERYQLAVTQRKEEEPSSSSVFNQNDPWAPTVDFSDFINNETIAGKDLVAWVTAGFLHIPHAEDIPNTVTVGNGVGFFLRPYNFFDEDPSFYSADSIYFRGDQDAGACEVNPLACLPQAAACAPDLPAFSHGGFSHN
Description: Amplex Red HRP-coupled amine oxidase activity evaluation, recombinant human VAP-1. The conditions noted are these: substrate 1 mM benzylamine; 30 min preincubation at 37° C.; read-out: Inhibitory Activity (IC50, nM) human VAP-1. The protocol: (§1) The compounds according to the present technology were evaluated in terms of activity on recombinant human VAP-1 (R&D systems) by measuring the level of hydrogen peroxide in horseradish peroxidase (HRP)-coupled reaction using Amplex Red Hydrogen Peroxide Assay Kit (Molecular Probes, Invitrogen, USA). The experiment was carried out at room temperature using benzylamine as a substrate. In the HRP-coupled reaction, hydrogen peroxide oxidation of 10-acetyl-3,7-dihydroxyphenoxazine (Amplex Red reagent) produces resorufin, which is a highly fluorescent compound. Briefly, the test compound was dissolved in dimethyl sulfoxide (DMSO) at a concentration of 20 mM. The dose-response assessment was made by 1:3 serial dilution in DMSO, thereby creating an 8-point curve. The concentration of the upper part was controlled according to the efficacy of the compounds, followed by dilution with a reaction buffer solution to obtain a final DMSO concentration of less than 1%. To each well of a 96 black well plate, human VAP-1 purified in 50 mM sodium phosphate buffer solution (pH7.4) was added. The test compounds dissolved in DMSO were incubated with the human VAP-1 enzymes at 37° C. for 30 minutes. After 30-minute incubation, each well was added with a reaction mixture containing 200 uM Amplex Red reagent prepared from 50 mM sodium phosphate buffer solution (pH 7.4), 1 mM benzylamine, and 1 U/mL HRP. Fluorescence intensity was measured at several time points during 1-2 hours using a microplate reader (Flexstation3, Molecular Devices) under the wavelength condition exciting at 544 nm and reading the emission at 590 nm. The inhibitory effect of the compounds was measured as a decrease (%) in the signal rate as compared to the control group without any inhibitor (only diluted DMSO). Data was fixed to a logistic model with four variables and IC50 value was calculated using GraphPad Prism program.

Assay [1] has as its target T2, recombinant human MAO-A (monoamine oxidase-A) (Homo sapiens, UniProt P21397).
T2 construct: purchased Sigma-Aldrich
T2 sequence (P21397 1-527): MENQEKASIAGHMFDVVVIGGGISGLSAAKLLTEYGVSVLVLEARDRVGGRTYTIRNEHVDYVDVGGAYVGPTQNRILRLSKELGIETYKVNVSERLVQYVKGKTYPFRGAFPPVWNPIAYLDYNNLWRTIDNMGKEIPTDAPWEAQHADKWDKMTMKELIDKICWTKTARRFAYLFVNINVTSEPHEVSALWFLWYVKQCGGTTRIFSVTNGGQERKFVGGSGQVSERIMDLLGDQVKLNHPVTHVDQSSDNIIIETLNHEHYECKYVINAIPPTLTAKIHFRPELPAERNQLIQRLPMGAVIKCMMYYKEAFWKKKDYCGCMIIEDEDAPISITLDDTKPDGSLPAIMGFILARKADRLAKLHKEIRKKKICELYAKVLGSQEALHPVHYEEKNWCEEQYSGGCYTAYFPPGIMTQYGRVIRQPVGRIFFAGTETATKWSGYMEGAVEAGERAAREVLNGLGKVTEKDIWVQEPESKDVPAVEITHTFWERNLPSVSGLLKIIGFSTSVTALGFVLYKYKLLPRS
As to the kind of experiment: Amplex Red HRP-coupled amine oxidase activity evaluation, recombinant human MAO-A. The conditions noted are these: substrate 0.5 mM tyramine; read-out: Inhibitory Activity (IC50, nM) MAO-A. The procedure: [The source words this procedure for another target and says it was used here with some conditions changed.] as §1

Assay [2] deals with T3, recombinant human MAO-B (monoamine oxidase-B) (Homo sapiens, UniProt P27338).
T3 construct: purchased Sigma-Aldrich
T3 sequence (P27338 1-520): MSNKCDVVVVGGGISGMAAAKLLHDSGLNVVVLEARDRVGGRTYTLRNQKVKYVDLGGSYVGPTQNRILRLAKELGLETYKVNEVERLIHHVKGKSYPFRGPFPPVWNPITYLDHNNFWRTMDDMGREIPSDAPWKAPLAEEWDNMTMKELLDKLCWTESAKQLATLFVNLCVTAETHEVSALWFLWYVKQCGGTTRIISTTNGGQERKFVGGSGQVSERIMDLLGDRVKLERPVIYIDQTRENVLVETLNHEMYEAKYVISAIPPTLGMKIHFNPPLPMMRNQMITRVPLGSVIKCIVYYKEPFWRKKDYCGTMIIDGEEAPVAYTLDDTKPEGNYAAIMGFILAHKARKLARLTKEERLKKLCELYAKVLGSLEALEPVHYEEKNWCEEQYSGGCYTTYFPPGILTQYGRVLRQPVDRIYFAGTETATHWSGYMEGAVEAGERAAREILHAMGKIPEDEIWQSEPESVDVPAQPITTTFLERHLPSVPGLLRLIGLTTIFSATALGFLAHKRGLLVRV
Description: Amplex Red HRP-coupled amine oxidase activity evaluation, recombinant human MAO-B. The settings on record: substrate 1 mM benzylamine; read-out: Inhibitory Activity (IC50, nM) MAO-B. The protocol: [The source words this procedure for another target and says it was used here with some conditions changed.] as §1

Assay [3] has as its target T4, recombinant human DAO (diamine oxidase) (Homo sapiens, UniProt P19801).
T4 construct: purchased R&D systems
T4 sequence (P19801 20-751): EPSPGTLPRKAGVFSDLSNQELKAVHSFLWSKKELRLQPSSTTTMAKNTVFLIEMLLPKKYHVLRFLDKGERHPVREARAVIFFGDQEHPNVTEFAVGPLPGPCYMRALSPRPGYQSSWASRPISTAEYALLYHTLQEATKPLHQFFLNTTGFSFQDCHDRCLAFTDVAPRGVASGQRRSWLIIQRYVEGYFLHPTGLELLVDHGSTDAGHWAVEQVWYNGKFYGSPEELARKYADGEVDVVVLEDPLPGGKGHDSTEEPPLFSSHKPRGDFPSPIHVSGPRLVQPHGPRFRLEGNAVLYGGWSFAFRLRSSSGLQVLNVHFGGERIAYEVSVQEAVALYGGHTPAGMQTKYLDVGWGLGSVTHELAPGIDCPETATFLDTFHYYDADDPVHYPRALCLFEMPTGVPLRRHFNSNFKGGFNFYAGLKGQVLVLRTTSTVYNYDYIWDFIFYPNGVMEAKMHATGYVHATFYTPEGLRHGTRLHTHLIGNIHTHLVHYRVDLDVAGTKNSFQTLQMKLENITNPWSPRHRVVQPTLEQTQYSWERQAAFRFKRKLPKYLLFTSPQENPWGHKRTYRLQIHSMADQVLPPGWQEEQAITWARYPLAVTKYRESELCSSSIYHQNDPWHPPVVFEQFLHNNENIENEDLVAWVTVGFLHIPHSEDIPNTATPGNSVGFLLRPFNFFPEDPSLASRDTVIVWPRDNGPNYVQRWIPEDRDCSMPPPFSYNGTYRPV
As to the kind of experiment: Amplex Red HRP-coupled amine oxidase activity evaluation, recombinant human DAO. The procedure: [The source words this procedure for another target and says it was used here with some conditions changed.] as §1

The mark [4] stands for this setting: substrate 1 mM putrescine, read-out: Inhibitory Activity (IC50, nM) DAO.

Structures can show the parent of a compound that is named as a salt. Where two headings read alike, the source gives them in different places. Where only a bound is given, the exact number is not on record here.

By IC50 is commonly meant the concentration needed to halve the response being measured. As to `Cc1cc(-c2ccc(-n3nnn(CC(CN)=C(F)F)c3=O)cc2)cc2c1NC(=O)CC2` [Example 20, 6-[4-[4-[2-(aminomethyl)-3,3-difluoro-allyl]-5-oxo-tetrazol-1-yl]phenyl]-8-methyl-3,4-dihydro-1H-quinolin-2-one trifluoroacetate], the IC50 at recombinant human VAP-1 is 0.4 nM; in assay [1] it was 82600 nM; in assay [2], 49 nM; in assay [3] (setting [4]), above 100000 nM.

Consider `Cc1nn(CC(CN)=C(F)F)c(=O)n1Cc1ccc(-c2ccc(S(C)(=O)=O)cc2)s1` [Example 2, 2-[2-(aminomethyl)-3,3-difluoro-allyl]-5-methyl-4-[[5-(4-methylsulfonylphenyl)-2-thienyl]methyl]-1,2,4-triazol-3-one trifluoroacetate], for which the half-maximal inhibitory concentration (IC50) at recombinant human VAP-1 was 1.8 nM; in assay [1], above 100000 nM; in assay [2], above 100000 nM; in assay [3] (setting [4]) it was above 100000 nM.

Consider `CCn1cc(-c2ccc(-n3nnn(CC(CN)=C(F)F)c3=O)s2)ccc1=O` [Example 9, 5-[5-[4-[2-(aminomethyl)-3,3-difluoro-allyl]-5-oxo-tetrazol-1-yl]-2-thienyl]-1-ethyl-pyridin-2-one trifluoroacetate], for which the half-maximal inhibitory concentration (IC50) is 0.4 nM at recombinant human VAP-1, above 100000 nM in assay [1], 203 nM in assay [2] and 3.1 nM in assay [3] (setting [4]).

With `Cc1cc(-c2cncc(-n3nnn(CC(CN)=C(F)F)c3=O)c2)cc2c1NC(=O)CC2` [Example 49, 6-[5-[4-[2-(aminomethyl)-3,3-difluoro-allyl]-5-oxo-tetrazol-1-yl]-3-pyridyl]-8-methyl-3,4-dihydro-1H-quinolin-2-one trifluoroacetate], the IC50 was determined as 0.9 nM on recombinant human VAP-1, 52200 nM in assay [1], 7080 nM in assay [2] and 3.5 nM in assay [3].

For `CS(=O)(=O)c1ccc(-c2csc(-n3nnn(CC(CN)=C(F)F)c3=O)c2)cc1` [Example 35, 1-[2-(aminomethyl)-3,3-difluoro-allyl]-4-[4-(4-methylsulfonylphenyl)-2-thienyl]tetrazol-5-one trifluoroacetate], the IC50 on recombinant human VAP-1 was 0.4 nM; in assay [1], above 100000 nM; in assay [2], 1430 nM; in assay [3] (setting [4]) it was 32200 nM.

As for `CCn1cc(-c2ccc(Cn3c(C)nn(CC(CN)=C(F)F)c3=O)s2)ccc1=O` [Example 4, 5-[5-[[1-[2-(aminomethyl)-3,3-difluoro-allyl]-3-methyl-5-oxo-1,2,4-triazol-4-yl]methyl]-2-thienyl]-1-ethyl-pyridin-2-one trifluoroacetate], the IC50 on recombinant human VAP-1 was 1.5 nM; in assay [1] it was above 100000 nM; in assay [2], above 100000 nM; in assay [3] (setting [4]), above 100000 nM.

As for `CCn1cc(-c2csc(-n3nnn(CC(CN)=C(F)F)c3=O)c2)cn1` [Example 42, 1-[2-(aminomethyl)-3,3-difluoro-allyl]-4-[4-(1-ethylpyrazol-4-yl)-2-thienyl]tetrazol-5-one trifluoroacetate], the IC50 at recombinant human VAP-1 is 0.4 nM; in assay [1] it was above 100000 nM; in assay [2] it was 228 nM; in assay [3] (setting [4]), 0.6 nM.

`NCC(Cn1nnn(-c2cc(-c3ccc4c(c3)OCO4)cs2)c1=O)=C(F)F` [Example 39, 1-[2-(aminomethyl)-3,3-difluoro-allyl]-4-[4-(1,3-benzodioxol-5-yl)-2-thienyl]tetrazol-5-one trifluoroacetate]: the IC50 worked out at 0.6 nM on recombinant human VAP-1, 26200 nM in assay [1], 21 nM in assay [2] and 88 nM in assay [3] (setting [4]).

`Cc1ccc(-c2ccc(S(C)(=O)=O)cc2)nc1-n1nnn(CC(CN)=C(F)F)c1=O` [Example 23, 1-[2-(aminomethyl)-3,3-difluoro-allyl]-4-[3-methyl-6-(4-methylsulfonylphenyl)-2-pyridyl]tetrazol-5-one trifluoroacetate]: the IC50 on recombinant human VAP-1 was above 100 nM; in assay [1] it was above 100000 nM; in assay [2] it was 59400 nM; in assay [3] (setting [4]), above 100000 nM.

For the molecule `NCC(Cn1ccn(Cc2ccc(-c3ccn4ncnc4c3)s2)c1=O)=C(F)F` [Example 53, 1-[2-(aminomethyl)-3,3-difluoro-allyl]-3-[[5-([1,2,4]triazolo[1,5-a]pyridin-7-yl)-2-thienyl]methyl]imidazol-2-one trifluoroacetate], the IC50 on recombinant human VAP-1 is above 100 nM; in assay [1], above 100000 nM; in assay [2], 80500 nM; in assay [3] (setting [4]) it was 38200 nM.

These data come from patent US12110279B2, “Triazolones, tetrazolones, and imidazolones, or their salts, and pharmaceutical compositions comprising the same” (Yuhan Corporation, priority 2021, dated 2024).
